Here are results for two molecules from patent US10266520B2, “Bisamidinium-based inhibitors for the treatment of myotonic dystrophy” (The Board of Trustees of the University of Illinois, priority 2014, dated 2019).

In data set [1] the test system is GFP-MBNL-rCUG^exp foci. In words: Nuclear foci disruption, FISH/confocal with GFP-MBNL1 in DM1 model HeLa cells. In kind it is cell-based. How it is done: FIG. 2A-C. (a) Representative confocal microscope images showing the GFP-MBNL-rCUG^exp foci disruption by compounds 1a and 2a. (b) Percent of foci area per cell after treatment of ligands for 48 h. The sequestration and dispersion of endogenous MBNL under the treatment of ligand are quantitatively measured. Error bars represent standard errors of mean from at least four independent experiments, two-tail t-test *P<0.005. Note: This was a head-to-head comparison between compounds 1a and 2a. […] The difference is attributed to variability in cells and conditions. (c) Cytotoxicity profile of compound 2a.
To evaluate the ability of dimer 2a to disrupt the […] in DM1 model cells, a standard fluorescence in situ hybridization experiment using exogenous MBNL was performed (FIG. 2a) (see Jahromi et al., ACS Chem. Biol. 2013, 8, 1037-1043). Here, GFP-MBNL1 was employed because of its intense signal and ability to easily monitor the location of the MBNL1 in live cells. Thus, normal HeLa cells were transfected with a plasmid containing GFP-MBNL1. To generate DM1 model cells, these HeLa cells were also transfected with a DMPK plasmid containing (CTG)960. […] The presence of MBNL1 was indicated as a green color from GFP signal for GFP-MBNL1 (Column 2), whereas (CUG)960 was detected by a complementary sequence (CAG)10 conjugated with a Cy3 dye and represented by a red color (Column 3). […]

The subject of data set [2] is Drosophila larvae (24B-GAL4>UAS-i(CTG)480; (CTG)60 control). In words: Larval crawling assay. The format is in vivo. The following applies: for mobility of normal larvae: 400 μM in fly food, control (CTG)60 larvae. As for the experimental part:
FIG. 4A-C. Efficacy of 1a and 2a in DM1 Drosophilia fly mode. (a) Improvement in adult rough eye phenotype. Each experiment was conducted in triplicate. (b) Effect of ligands on the control Drosophilia larvae (24B−GAL4>UAS−(CTG)60). (c) Dose-dependent effect of ligands on the DM1 larvae (24B−GAL4>UAS−i(CTG)480). Each experiment was conducted in triplicate, 10 individual larvae for each trial. Error bars represent standard deviation, two tail t-test *P<0.05, **P<0.01, ***P<0.001.
An individual larva generated from transgenic flies was placed on a Petri dish over graph paper, and the number of grid lines crossed by the larva in 1 min was recorded.
Drosophila lines were cultured in standard cornmeal medium supplemented with dry yeasts. Fly lines bearing UAS-(CTG)60 and UAS-(CTG)480 were kind gifts of Prof. Rubén Artero Allepuz (Universitate de València, Estudi General, Spain). The gmr-GAL4 and […] lines were used to drive UAS transgene expression in eye and muscles respectively. Ligands 1a and 2a were dissolved in ddH2O and mixed with fly food. Genetic crosses were set up in drug-containing fly food at 21.5° C. for external eye assay, and at 25° C. for larval crawling assay.
Larval crawling assay was performed as previously described (Lanson et al., Hum. Mol. Genet. 2011, 20, 2510-2523). Ten wandering third instar larvae were washed in ddH2O and placed on a 2% agarose gel in a 15-cm Petri dish with gridlines spaced at 0.5 cm. The larvae were allowed to acclimate for a period of 1 min, and the total number of gridlines that the posterior end of the larvae passes in 1 min was determine. Each set of experiment was repeated independently for three times using larvae collected from separate genetic crosses.

For data set [3], the system named is insulin receptor (IR) pre-mRNA splicing. In words: Correction of IR alternative splicing in DM1 cell model (RT-PCR). In kind it is cell-based. The following applies: 1 μM. The source says:
FIG. 3A-B. (a) Schematic representation of IR alternative splicing. (b) Correction of IR splicing by compounds 2a and 1a as determined by conventional RT-PCR. Error bars represent standard deviation for three independent experiments, two-tail t-test *P<0.01,**P<0.005.
Because 2a is capable of inhibiting MBNL1-rCUG^exp both in vitro and in cells, we evaluated its ability to correct the splicing defects in the DM1 cell model. We chose to examine the IR mRNA mis-splicing, because among several pre-mRNA splicing defects associated with the depletion of MBNL1 protein, the reversal of IR splicing requires the largest amount of free MBNL1 and is therefore the more challenging defect. During the alternative splicing of IR, two products were generated: isoforms IR-A and IR-B with the exclusion and inclusion of exon 11, respectively (FIG. 3a). In normal skeletal muscle, IR-B is the dominant isoform, whereas IR-A is more abundant in DM1 skeletal muscle. […] In particular, compound 2a at 1 μM increased the abundance of isoform B to 49% (ca. 80% correction).
ITC, EMSA, confocal microscopy, IR splicing, and the reversal of rough-eye phenotype assays were conducted as previously described (Wong et al., J. Am. Chem. Soc. 2014, 136, 6355-6361). […]

Data set [4] relates to HeLa cells. In words: SRB cytotoxicity assay. In kind it is cell-based. How it is done: This finding indicates an advantage of the bisamidinium-based ligands over the acridine-containing ligands.
ITC, EMSA, confocal microscopy, IR splicing, and the reversal of rough-eye phenotype assays were conducted as previously described (Wong et al., J. Am. Chem. Soc. 2014, 136, 6355-6361). The cytotoxicity of 2a was accessed using a published protocol (Vichai et al., Sulforhodamine B colorimetric assay for cytotoxicity screening, Nat. Protoc. 2006, 1, 1112-1116).

Data set [5] concerns MBNL1-rCUG^exp nuclear foci. The following applies: cited from earlier work.
For data set [6] the following is noted: earlier work; cited from earlier work.
The target in data set [7] is MBNL1-(CUG)12 complex. The following applies: earlier work; read-out: KI, inhibition of MBNL1-(CUG)12 complex; cited from earlier work.

On to `N=C(NCCCCNc1nc(N)nc(N)n1)c1ccc(C(=N)NCCCCNc2nc(N)nc(NCCCn3cc(CNc4nc(N)nc(NCCCCNC(=N)c5ccc(C(=N)NCCCCNc6nc(N)nc(N)n6)cc5)n4)nn3)n2)cc1` [Compound 2a], for which the “foci dispersion (GFP-MBNL1)” value in data set [1] (1, 10, and 100 μM) is “foci dispersion was observed”. The “improvement in the DM1 larva's mobility” value in data set [2] (20 μM, DM1 larvae) came to 37%. Further, the crawling defect rescued result in data set [2] (100 μM, DM1 larvae) is “nearly full recovered”. Also, the “mobility of normal larvae” value in data set [2] was “the mobility is not affected”. For the same molecule, the “correction of IR splicing” value in data set [3] (DM1 cell model) is recorded as “ca. 80%”. Moreover, the “abundance of IR isoform B” value in data set [3] (DM1 cell model (normal ca. 53%, DM1 34%)) was found to be 49%. Moreover, the HeLa cell death entry in data set [4] (100 μM, 96 h) is “ca. 10%”. Also, the cellular toxicity result in data set [4] (lower concentrations (below 100 μM)) is on record as “negligible cellular toxicity”.

The term Ki denotes the equilibrium dissociation constant of an inhibitor or competing ligand from its target. With `N=C(NCCCCNc1nc(N)nc(N)n1)c1ccc(C(=N)NCCCCNc2nc(N)nc(N)n2)cc1` [Compound 1a], the “reduction of foci to (previous study)” value in data set [5] (100 μM, previous study) is listed as 32%. For the same molecule, in data set [5] (earlier work), the “MBNL1-rCUG^exp nuclear foci in DM1 model cells (earlier work)” value was “dissolved foci”. In addition, the “foci dispersion (GFP-MBNL1)” value in data set [1] (100 μM) is “foci dispersion was observed”. The crawling defect rescued result in data set [2] (100 μM, DM1 larvae) is recorded as “ca. 14%”; in data set [2] (200 μM, DM1 larvae), roughly 54%; in data set [2] (400 μM, DM1 larvae), roughly 84%. For the same molecule, the “mobility of normal larvae” value in data set [2] was “the mobility is not affected”. For the same molecule, the water solubility result in data set [6] is “excellent water solubility”. Moreover, the Ki in data set [7] was 8 µM.
